Test results: patent US8506973B2, “Injectable anticancer composition for local administration containing hydroxychloroquine” (priority 2009, dated 2013)

What was measured:
[1] = test system: Sarcoma-180 cells; assay: Inhibitory effect on differentiation of subcutaneously transplanted Sarcoma-180 cells in ICR mice; format: in vivo; settings: cisplatin 20 mg/m^2, 12 animals per group, average of two tests
Protocol: A sarcoma-180 cell suspension having a cell concentration of 2×10^7 cells/ml was transplanted by subcutaneous injection into the inguinal region of all the groups excluding the normal group, thereby inducing solid cancer.
On the final day of the test, the animals were biopsied, and the number of animals in which sarcoma-180 cells stably grew was measured and used as an anticancer index. The same test was carried out twice, and the two measurements were averaged.

[2] = Solubility of hydroxychloroquine (statement); format: physicochemical

| Structure (SMILES) | number of animals in which cancer cells were observed in the inguinal region by biopsy [1] [animals] | solubility at room temperature (in words) [2] |
| --- | --- | --- |
| N.N.[Cl][Pt][Cl] [cisplatin, Cisplatin] | 4.5 | – |
| CCN(CCO)CCCC(C)Nc1ccnc2cc(Cl)ccc12 (centres unmarked) [hydroxychloroquine] | – | insoluble at room temperature |
